# Values quoted from earlier work, collected in patent US20120101005A1, “METHODS FOR PREDICTING THE TOXICITY OF A CHEMICAL” (GE HEALTHCARE UK LIMITED, priority 2009, published 2012).
# Read-outs that look alike come from different tables or passages of the source.
# Key:
# rat PC12 cells = details: for NGF-induced neuronal differentiation of PC12 cells: monitored by generation of neurite processes
# [1] = molecular target: p140 trk tyrosine kinase NGF-receptor (Rattus norvegicus, UniProt P35739); details: read-out: IC50, p140 trk NGF-receptor autophosphorylation
# Sequence of p140 trk tyrosine kinase NGF-receptor (Rattus norvegicus, UniProt P35739) (P35739 33-799): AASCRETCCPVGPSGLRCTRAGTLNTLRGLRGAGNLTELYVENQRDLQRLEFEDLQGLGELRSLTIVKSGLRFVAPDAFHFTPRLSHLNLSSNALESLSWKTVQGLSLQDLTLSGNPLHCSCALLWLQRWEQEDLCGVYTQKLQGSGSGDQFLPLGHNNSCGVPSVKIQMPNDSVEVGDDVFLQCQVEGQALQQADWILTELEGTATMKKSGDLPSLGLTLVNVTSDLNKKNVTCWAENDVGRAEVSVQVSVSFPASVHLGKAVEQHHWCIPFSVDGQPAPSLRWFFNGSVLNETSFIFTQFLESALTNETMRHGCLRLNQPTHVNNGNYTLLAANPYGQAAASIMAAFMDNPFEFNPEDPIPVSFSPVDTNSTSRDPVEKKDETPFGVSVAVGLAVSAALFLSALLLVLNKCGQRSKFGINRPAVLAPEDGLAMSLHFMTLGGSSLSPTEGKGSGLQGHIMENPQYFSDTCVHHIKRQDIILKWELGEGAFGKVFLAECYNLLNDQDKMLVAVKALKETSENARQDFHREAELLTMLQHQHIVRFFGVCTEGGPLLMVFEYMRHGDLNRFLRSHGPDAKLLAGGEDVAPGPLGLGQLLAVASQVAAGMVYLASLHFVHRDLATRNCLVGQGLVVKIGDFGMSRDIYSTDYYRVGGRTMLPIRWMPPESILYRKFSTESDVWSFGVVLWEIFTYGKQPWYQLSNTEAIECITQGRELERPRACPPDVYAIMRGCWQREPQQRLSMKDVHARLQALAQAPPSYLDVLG
# EGF receptor = EGF receptor (Homo sapiens, UniProt P00533)
# Sequence of EGF receptor (P00533 25-1210): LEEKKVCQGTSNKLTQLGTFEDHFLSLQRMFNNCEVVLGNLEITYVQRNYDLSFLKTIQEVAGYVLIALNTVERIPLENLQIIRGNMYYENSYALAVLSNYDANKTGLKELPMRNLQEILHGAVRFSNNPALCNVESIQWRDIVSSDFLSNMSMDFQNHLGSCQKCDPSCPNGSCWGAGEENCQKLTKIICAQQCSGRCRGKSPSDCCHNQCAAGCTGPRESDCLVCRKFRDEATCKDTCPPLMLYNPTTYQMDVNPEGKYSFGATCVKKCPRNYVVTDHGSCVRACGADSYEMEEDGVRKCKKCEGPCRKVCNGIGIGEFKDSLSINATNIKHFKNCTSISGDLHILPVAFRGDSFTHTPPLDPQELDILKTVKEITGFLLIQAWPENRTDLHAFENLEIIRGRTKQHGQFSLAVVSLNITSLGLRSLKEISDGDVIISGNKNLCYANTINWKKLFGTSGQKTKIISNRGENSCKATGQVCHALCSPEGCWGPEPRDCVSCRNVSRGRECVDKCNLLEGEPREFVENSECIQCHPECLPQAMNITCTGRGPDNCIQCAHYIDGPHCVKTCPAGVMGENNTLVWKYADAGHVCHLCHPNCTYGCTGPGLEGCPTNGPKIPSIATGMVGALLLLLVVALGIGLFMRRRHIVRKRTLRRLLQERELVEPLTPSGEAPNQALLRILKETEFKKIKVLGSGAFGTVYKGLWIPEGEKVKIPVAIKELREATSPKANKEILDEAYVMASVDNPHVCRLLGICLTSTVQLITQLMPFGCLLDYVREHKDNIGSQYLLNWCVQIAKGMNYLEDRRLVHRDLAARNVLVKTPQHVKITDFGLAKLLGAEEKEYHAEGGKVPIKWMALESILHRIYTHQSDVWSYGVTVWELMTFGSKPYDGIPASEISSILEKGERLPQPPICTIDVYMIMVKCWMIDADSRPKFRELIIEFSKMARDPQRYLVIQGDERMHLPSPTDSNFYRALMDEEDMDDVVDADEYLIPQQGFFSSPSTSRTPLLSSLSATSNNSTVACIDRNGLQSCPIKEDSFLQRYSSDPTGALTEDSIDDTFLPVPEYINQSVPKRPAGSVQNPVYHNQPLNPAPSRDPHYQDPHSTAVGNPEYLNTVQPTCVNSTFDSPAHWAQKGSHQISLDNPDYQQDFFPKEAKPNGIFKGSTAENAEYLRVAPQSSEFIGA
# [2] = system: p140 trk tyrosine kinase NGF-receptor; details: compound interacts with NGF
# [3] = system: common neurotrophin receptor p75NTR; details: compound interacts with NGF
# [4] = system: human embryonic stem cells
# ES cells [5] = details: co-treatment with retinoic acid
# ES cells [6] = system: ES cells
# [7] = system: 3T3-F442A, 3T3-L1, Ob1771 and embryonic stem cells
# [8] = system: C3H10T1/2 mesenchymal stem cells; details: induced with 200 nM insulin, 1 μM BRL49653 and LGD1069; lipogenesis, oil red O-staining, AP2 and LPL expression
# [9] = 1 μM on the first day of the differentiation process
smiles,measurement,setting,value
CC(C)(C)c1cc(/C=C(\C#N)C(N)=S)cc(C(C)(C)C)c1O [AG-879],NGF-induced neurite outgrowth in PC12 cells,rat PC12 cells,inhibits NGF-induced neurite outgrowth
same,IC50,[1],10 µM
same,inhibition of EGF receptor phosphorylation,EGF receptor,no inhibition
same,inhibition of PDGF receptor phosphorylation,PDGF receptor,no inhibition
"Nc1ncnc2c1ncn2C(C=O)OC(C=O)CO (centres unmarked) [AdOx, Adenosine dialdehyde]","expression levels of the neuronal markers β-tubulin, NeuroD1 and mash1",P19 EC cells; [9],decreased
same,number of neurites observed,P19 EC cells; [9],decreased
"CCCCCCCCCC(=O)N[C@H](CN1CCOCC1)[C@H](O)c1ccccc1 [D-PDMP, D-theo-1-phenyl-2-decanoylamino-3-morphlino-1-propanol]",death of P19-derived neurons,P19 EC cells,causing the death of P19-derived neurons
same,cell death of undifferentiated P19 EC cells,P19 EC cells; 50 μM,without any indication of cell death
same,proliferation of the undifferentiated P19 EC cells,"P19 EC cells; 50 μM, added 3 days prior to retinoic acid and maintained",reduced
same,neurite elongation,"P19 EC cells; 50 μM, neurites present but failed to develop correctly",abolished neurite elongation
same,neurite outgrowth,P19 EC cells; P19 EC in-vitro neuronal differentiation model,inhibited neurite outgrowth
Cc1cc(S(C)(=O)=O)c(S(C)(=O)=O)cc1C(=O)NC(=N)N [EMD87580],cardiomyocyte differentiation of mouse P19 embryonic carcinoma cells,mouse P19 cell; during DMSO induction,inhibit the cardiomyocyte differentiation
COC(=O)[C@]1(O)C[C@H]2O[C@]1(C)n1c3ccc(O)cc3c3c4c(c5c6ccccc6n2c5c31)C(=O)NC4=O [Indocarbazostatin C],NGF-induced neuronal differentiation of PC12 cells,rat PC12 cells,inhibitors
COC(=O)[C@]1(O)C[C@H]2O[C@]1(C)n1c3ccc(O)c(N)c3c3c4c(c5c6ccccc6n2c5c31)C(=O)NC4=O [Indocarbazostatin D],NGF-induced neuronal differentiation of PC12 cells,rat PC12 cells,inhibitors
COC(=O)[C@@]1(O)C[C@H]2O[C@]1(C)n1c3ccccc3c3c4c(c5c6ccccc6n2c5c31)C(=O)NC4 [K-252a],NGF-induced neuronal differentiation of PC12 cells,rat PC12 cells,effective inhibitors
C[C@]12O[C@H](C[C@]1(O)C(=O)O)n1c3ccccc3c3c4c(c5c6ccccc6n2c5c31)CNC4=O [K-252b],NGF-induced neuronal differentiation of PC12 cells,rat PC12 cells,effective inhibitors
"Cn1c2ccc(NC(=O)c3ccccc3)cc2c(=O)n2nc(C(=O)O)cc12 [PD90780, 7-(Benzolylamino)-4,9-Dihydro-4-Methyl-9-Oxo-Pyrazolo[5,1-b]Quinazoline-2-Carboxlic Acid]",NGF-induced neuronal differentiation of PC12 cells,rat PC12 cells,abolishes
same,binding of NGF to p140 trk tyrosine kinase NGF-receptor,[2],preventing its binding
same,binding of NGF to p75NTR,[3],preventing its binding
"COc1cccc(-c2cc(=O)c3ccccc3o2)c1N [PD98059, 2″-Amino-3″-Methoxyflavone]",concentration at which reported as inhibitor of human embryonic stem cell cardiomyocyte differentiation,[4],5 to 25 µM
same,NGF-induced neurite formation in PC12 cells,rat PC12 cells,completely blocks
same,cell viability of PC12 cells,rat PC12 cells,without affecting cell viability
same,adipocyte formation from ES cells,ES cells [5],prevents adipocyte formation
same,expression of adipogenic markers in ES cells,ES cells [5],prevented
same,adipocyte formation from ES cells,ES cells [5]; listed as PD68059,prevented
same,differentiation of ES cells into neuron or cardiomyocytes,ES cells [6],no effect
Cn1cc(C2=C(c3ccc(Cl)cc3Cl)C(=O)NC2=O)c2ccccc21 [SB216763],concentration at which reported as inhibitor of human embryonic stem cell cardiomyocyte differentiation,[4],10 to 25 µM
"C[S+]([O-])c1ccc(-c2nc(-c3ccc(F)cc3)c(-c3ccncc3)[nH]2)cc1 (centres unmarked) [SB 203580, 4-(4″-fluorophenyl)-2-(4″-methylsulfinylphenyl)-5-(4″-pyridyl) imidazole]",P19 cell differentiation into cardiomyocytes,"mouse P19 cell; 10 μM, cardiac-actin by immuno-histochemistry, cardiac-actin and atrial natriuretic peptide by RT-PCR",prevent mouse P19 cell differentiation into cardiomycocytes
same,effect on the activities of ERKs,ERKs,no significant effect
same,effect on the activities of JNKs,JNKs,no significant effect
same,number of cardiomyocytes from human embryonic stem cells,[4]; 15 μM,dramatically reduces the number of cardiomyocytes
same,cardiomyocyte differentiation of human embryonic stem cells,[4]; 25 μM,completely blocked
same,generation of cardiomyocytes from human embryonic stem cells,[4]; 1-10 μM,enhances the generation of cardiomyocytes
CC(C)(C)NC(=O)[C@@H]1CN(Cc2cccnc2)CCN1C[C@@H](O)C[C@@H](Cc1ccccc1)C(=O)N[C@H]1c2ccccc2C[C@H]1O [indinavir],"adipocyte differentiation, by cell model",[7],inhibited the differentiation of only 3T3-L1 and 3T3-F442A cells
Cc1cccc(C)c1OCC(=O)N[C@@H](Cc1ccccc1)[C@@H](O)C[C@H](Cc1ccccc1)NC(=O)[C@H](C(C)C)N1CCCNC1=O [lopinavir],"adipocyte differentiation, by cell model",[7],inhibited adipocyte differentiation in all cells tested
Cc1c(O)cccc1C(=O)N[C@@H](CSc1ccccc1)[C@H](O)CN1C[C@H]2CCCC[C@H]2C[C@H]1C(=O)NC(C)(C)C [nelfinavir],adipocyte differentiation of mesenchymal stem cells,[8],reduced the adipocyte differentiation
same,"adipocyte differentiation, by cell model",[7],inhibited adipocyte differentiation in all cells tested
CC(C)c1nc(CN(C)C(=O)N[C@H](C(=O)N[C@@H](Cc2ccccc2)C[C@H](O)[C@H](Cc2ccccc2)NC(=O)OCc2cncs2)C(C)C)cs1 [ritonavir],adipocyte differentiation of mesenchymal stem cells,[8],reduced the adipocyte differentiation
same,"adipocyte differentiation, by cell model",[7],inhibited the differentiation of only 3T3-L1 and 3T3-F442A cells
CC(C)(C)NC(=O)[C@@H]1C[C@@H]2CCCC[C@@H]2CN1C[C@@H](O)[C@H](Cc1ccccc1)NC(=O)[C@H](CC(N)=O)NC(=O)c1ccc2ccccc2n1 [saquinavir],adipocyte differentiation of mesenchymal stem cells,[8],reduced the adipocyte differentiation
same,"adipocyte differentiation, by cell model",[7],inhibited the differentiation of only 3T3-L1 and 3T3-F442A cells
